What was measured:
Notch-1 = assay: Promoter activity by Notch-1, luciferase reporter in LS174T cells co-cultured with 293-hDLL4; type: cell-based, human; settings: antibody 20 mg/ml, DAPT 5 mM, co-culture with 293-hDLL4 24 hours, luminescence, versus untreated antibody group, FIG. 9
Experimental: 1×10^5 LS174T cells (colon cancer cell line; ATCC, CL-188™) were incubated in RPMI medium containing 10% of fetal calf serum for 24 hours, and 0.8 μg of Notch Cignal reporter DNA contained in Cignal Reporter Assay Kit (#336841 CCS-014L, QIAGEN) and 2 μl of lipofectamine (#11668-500; Invitrogen) were mixed with 100 μl of opti-MEM media and allowed to stand for 20 minutes, and then 400 μl of opti-MEM was added for transfection to incubate cells for 6 hours. After 6 hours, the medium was replaced with an MEM medium containing 10% fetal calf serum, and incubated overnight. Next day, Tanibirumab and PMC-201 (each of 20 mg/ml) were mixed and pre-treated in 1×10^5 of 293-hDLL4 cells for 1 hour, then co-cultured with LS174T cells transfected with Notch Cignal reporter DNA for 24 hours. DAPT (5 mM) was not pre-treated and 293-hDLL4 cell was mixed with the transfected LS174T cells, and co-cultured for 24 hours.
After co-culture for 24 hours, cells were lyzed by using a lysis buffer contained in Dual-Luciferase Reporter Assay System (Cat. # E1910; Promega), and a substrate and ATP were mixed with each other, and then luminescence amount was measured by using Luminometer.

human DLL4 = target: T1, human DLL4 (Homo sapiens, UniProt Q9NR61); assay: Biacore affinity analysis to human DLL4; type: binding; settings: BIACORE 3000, CM5 chip, sample immobilized, DLL4 4.9-312.5 nM as antigen, FIG. 5
T1 construct: expressed in transfected cells; host or cells: 293 cells stably transfected with pcDNA-hDLL4 (293-DLL4 pool; clone 293-hDLL4)
Experimental: In order to calculate Kd (dissociation constant) of PMC-201 to human DLL4, BIACORE® 3000 (GE Healthcare) was used, and CM5 chip was used. The dissociation constant is similar to Km value, and is used as an affinity index of an enzyme to a substrate in an enzyme-substrate complex. The affinity between the enzyme and the substrate is increased as the dissociation constant is decreased.
The sample was immobilized by using 400 mM EDC (N-ethyl-N′-(dimethylaminopropyl) Carbodiimide), 100 mM NHS (N-Hydroxysuccinimide), and 1M ethanolamine hydrochloride (pH 8.5) that are an Amine Coupling Kit (GE Healthcare), and 20 mM sodium hydroxide as a generation buffer, and 1×PBS as an immobilization buffer were diluted, and then the analysis sample was 1:40 diluted in 10 mM acetate (pH 5.0) (GE Healthcare). The sample was immobilized at 4000RU (Response Unit). A buffer for measuring adsorption of the analysis sample was a HBS-EP buffer (GE Healthcare). DLL4s having measurement concentrations of 4.9, 9.7, 19.5, 39.1, 78.1, 156.3, 312.5 nM as an antigen were serial-diluted so as to have a final volume of 200 μl by using an HBS-EP buffer. Five concentrations of seven concentrations were selected and fitted. […] Affinity of the analysis sample was measured under conditions in which an analysis flow rate was 30 μl/min, a binding section was 60 seconds, and a dissociation was 300 seconds.

T1 sequence (Q9NR61 27-685): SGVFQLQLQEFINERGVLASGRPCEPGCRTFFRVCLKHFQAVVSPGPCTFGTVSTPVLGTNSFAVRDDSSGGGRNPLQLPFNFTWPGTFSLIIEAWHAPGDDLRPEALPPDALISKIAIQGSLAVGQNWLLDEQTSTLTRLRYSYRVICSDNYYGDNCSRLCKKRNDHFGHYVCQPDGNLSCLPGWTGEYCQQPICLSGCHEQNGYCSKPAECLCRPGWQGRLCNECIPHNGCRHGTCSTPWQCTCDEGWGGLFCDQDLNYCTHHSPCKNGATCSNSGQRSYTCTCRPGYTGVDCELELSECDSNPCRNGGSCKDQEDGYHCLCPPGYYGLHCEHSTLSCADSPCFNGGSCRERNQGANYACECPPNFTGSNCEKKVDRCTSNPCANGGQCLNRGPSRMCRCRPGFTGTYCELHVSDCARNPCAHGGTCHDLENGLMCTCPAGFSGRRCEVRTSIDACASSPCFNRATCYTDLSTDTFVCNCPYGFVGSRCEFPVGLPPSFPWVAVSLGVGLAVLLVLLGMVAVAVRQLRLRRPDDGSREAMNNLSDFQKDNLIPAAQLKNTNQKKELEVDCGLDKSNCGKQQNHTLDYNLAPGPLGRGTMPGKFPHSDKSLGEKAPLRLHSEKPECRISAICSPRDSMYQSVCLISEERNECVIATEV

Molecule | promoter activation of NICD exhibited by Notch-1 activation of LS174T cells (Notch-1) | affinity (Kd, dissociation constant) to human DLL4 (human DLL4)
C[C@H](NC(=O)Cc1cc(F)cc(F)c1)C(=O)N[C@H](C(=O)OC(C)(C)C)c1ccccc1 [DAPT, N—[N-(3,5-Difluorophenacetyl)-L-alanyl]-S-phenylglycine t-butyl ester] | decreased | –
Notch-1 Fc: Notch-1 Fc protein used as comparator for binding to hDLL4 (protein, left off: a dimerising Fc or GST) ARGPRCSQPGETCLNGGKCEAANGTEACVCGGAFVGPRCQDPNPCLSTPCKNAGTCHVVDRRGVADYACSCALGFSGPLCLTPLDNACLTNPCRNGGTCDLLTLTEYKCRCPPGWSGKSCQQADPCASNPCANGGQCLPFEASYICHCPPSFHGPTCRQDVNECGQKPGLCRHGGTCHNEVGSYRCVCRATHTGPNCERPYVPCSPSPCQNGGTCRPTGDVTHECACLPGFTGQNCEENIDDCPGNNCKNGGACVDGVNTYNCRCPPEWTGQYCTEDVDECQLMPNACQNGGTCHNTHGGYNCVCVNGWTGEDCSENIDDCASAACFHGATCHDRVASFYCECPHGRTGLLCHLNDACISNPCNEGSNCDTNPVNGKAICTCPSGYTGPACSQDVDECSLGANPCEHAGKCINTLGSFECQCLQGYTGPRCEIDVNECVSNPCQNDATCLDQIGEFQCICMPGYEGVHCEVNTDECASSPCLHNGRCLDKINEFQCECPTGFTGHLCQ | – | affinity was confirmed
